# Measured values published in PubChem BioAssay (NCI).
#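 48-hour exposure; five concentrations; linearly interpolated endpoints. At the TGI there is no net growth.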
# System: K-562 leukemia
# Assay: NCI anticancer screen, dose series, 48 h
row,Compound,TGI [µM]
1,Cc1cc(C)cc(C(=N)c2ccccc2Cc2cccc3ccccc23)c1,48.5
2,COn1cc(C=O)c2ccccc21,> 100
3,COC(CN(C(=O)c1ccccc1)C1CCC2(SCCS2)c2[nH]c3ccccc3c21)OC (stereo unspecified),> 100
4,C#CCn1ncc2c(SCc3ccccc3)ncnc21,> 100
5,CCC1OC2C(CC=C(C)C)=C3OC(C)(O)C(C)(CC)C(OC(=O)c4ccccc4)C3=C3OC(=O)C=C1C32 (stereo unspecified),> 100
6,CC1=C(C(N)=O)C(c2ccncc2)C(C#N)=C2SCC(=O)N12 (stereo unspecified),> 100
7,CCN(CC)c1ccc2cc(-c3nnc(-c4ccccc4)o3)c(=O)oc2c1,> 100
8,CC1=CC(C2/C(=N/O)C=C(C)CC2(C)C)C(O)C(C)(C)C1 (stereo unspecified),32.1
9,O=C(CC(c1ccccc1)N1CCCCC1)c1ccccc1 (stereo unspecified),8.6
10,O=C1/C(=C\c2ccc([N+](=O)[O-])o2)SC2N=C(COc3ccc(Cl)cc3)NN12 (stereo unspecified),27
11,Cc1cccc2c1[C@]13OC(C)[C@]4(C)CC5OC(=O)[C@@]1(C)[C@@H]5[C@]34C(=O)O2 (stereo partly specified),> 100

# System: SN12C renal
# Assay: NCI anticancer screen, dose series, 48 h
row,Compound,TGI [µM]
1,Cc1cc(C)cc(C(=N)c2ccccc2Cc2cccc3ccccc23)c1,34.8
2,COn1cc(C=O)c2ccccc21,> 100
3,COC(CN(C(=O)c1ccccc1)C1CCC2(SCCS2)c2[nH]c3ccccc3c21)OC (stereo unspecified),> 100
4,C#CCn1ncc2c(SCc3ccccc3)ncnc21,> 100
5,CCC1OC2C(CC=C(C)C)=C3OC(C)(O)C(C)(CC)C(OC(=O)c4ccccc4)C3=C3OC(=O)C=C1C32 (stereo unspecified),79
6,CC1=C(C(N)=O)C(c2ccncc2)C(C#N)=C2SCC(=O)N12 (stereo unspecified),> 100
7,CCN(CC)c1ccc2cc(-c3nnc(-c4ccccc4)o3)c(=O)oc2c1,> 100
8,CC1=CC(C2/C(=N/O)C=C(C)CC2(C)C)C(O)C(C)(C)C1 (stereo unspecified),33.3
9,O=C(CC(c1ccccc1)N1CCCCC1)c1ccccc1 (stereo unspecified),32.6
10,O=C1/C(=C\c2ccc([N+](=O)[O-])o2)SC2N=C(COc3ccc(Cl)cc3)NN12 (stereo unspecified),29.6
11,Cc1cccc2c1[C@]13OC(C)[C@]4(C)CC5OC(=O)[C@@]1(C)[C@@H]5[C@]34C(=O)O2 (stereo partly specified),> 100

# System: HCT-15 colon
# Assay: NCI anticancer screen, dose series, 48 h
row,Compound,TGI [µM]
1,Cc1cc(C)cc(C(=N)c2ccccc2Cc2cccc3ccccc23)c1,32.2
2,COn1cc(C=O)c2ccccc21,> 100
3,COC(CN(C(=O)c1ccccc1)C1CCC2(SCCS2)c2[nH]c3ccccc3c21)OC (stereo unspecified),> 100
4,C#CCn1ncc2c(SCc3ccccc3)ncnc21,> 100
5,CCC1OC2C(CC=C(C)C)=C3OC(C)(O)C(C)(CC)C(OC(=O)c4ccccc4)C3=C3OC(=O)C=C1C32 (stereo unspecified),> 100
6,CC1=C(C(N)=O)C(c2ccncc2)C(C#N)=C2SCC(=O)N12 (stereo unspecified),> 100
7,CCN(CC)c1ccc2cc(-c3nnc(-c4ccccc4)o3)c(=O)oc2c1,> 100
8,CC1=CC(C2/C(=N/O)C=C(C)CC2(C)C)C(O)C(C)(C)C1 (stereo unspecified),33.6
9,O=C(CC(c1ccccc1)N1CCCCC1)c1ccccc1 (stereo unspecified),36.6
10,O=C1/C(=C\c2ccc([N+](=O)[O-])o2)SC2N=C(COc3ccc(Cl)cc3)NN12 (stereo unspecified),4.77
11,Cc1cccc2c1[C@]13OC(C)[C@]4(C)CC5OC(=O)[C@@]1(C)[C@@H]5[C@]34C(=O)O2 (stereo partly specified),> 100

# System: A498 renal
# Assay: NCI anticancer screen, dose series, 48 h
row,Compound,TGI [µM]
1,Cc1cc(C)cc(C(=N)c2ccccc2Cc2cccc3ccccc23)c1,87.3
2,COn1cc(C=O)c2ccccc21,3.97
3,COC(CN(C(=O)c1ccccc1)C1CCC2(SCCS2)c2[nH]c3ccccc3c21)OC (stereo unspecified),> 100
4,C#CCn1ncc2c(SCc3ccccc3)ncnc21,> 100
5,CCC1OC2C(CC=C(C)C)=C3OC(C)(O)C(C)(CC)C(OC(=O)c4ccccc4)C3=C3OC(=O)C=C1C32 (stereo unspecified),> 100
6,CC1=C(C(N)=O)C(c2ccncc2)C(C#N)=C2SCC(=O)N12 (stereo unspecified),> 100
7,CCN(CC)c1ccc2cc(-c3nnc(-c4ccccc4)o3)c(=O)oc2c1,> 100
8,CC1=CC(C2/C(=N/O)C=C(C)CC2(C)C)C(O)C(C)(C)C1 (stereo unspecified),33.3
9,O=C(CC(c1ccccc1)N1CCCCC1)c1ccccc1 (stereo unspecified),29.3
10,O=C1/C(=C\c2ccc([N+](=O)[O-])o2)SC2N=C(COc3ccc(Cl)cc3)NN12 (stereo unspecified),44.3
11,Cc1cccc2c1[C@]13OC(C)[C@]4(C)CC5OC(=O)[C@@]1(C)[C@@H]5[C@]34C(=O)O2 (stereo partly specified),> 100

# System: SK-MEL-2 melanoma
# Assay: NCI anticancer screen, dose series, 48 h
row,Compound,TGI [µM]
1,Cc1cc(C)cc(C(=N)c2ccccc2Cc2cccc3ccccc23)c1,> 100
2,COn1cc(C=O)c2ccccc21,> 100
3,COC(CN(C(=O)c1ccccc1)C1CCC2(SCCS2)c2[nH]c3ccccc3c21)OC (stereo unspecified),> 100
4,C#CCn1ncc2c(SCc3ccccc3)ncnc21,> 100
5,CCC1OC2C(CC=C(C)C)=C3OC(C)(O)C(C)(CC)C(OC(=O)c4ccccc4)C3=C3OC(=O)C=C1C32 (stereo unspecified),55.2
6,CC1=C(C(N)=O)C(c2ccncc2)C(C#N)=C2SCC(=O)N12 (stereo unspecified),> 100
7,CCN(CC)c1ccc2cc(-c3nnc(-c4ccccc4)o3)c(=O)oc2c1,> 87.2
8,CC1=CC(C2/C(=N/O)C=C(C)CC2(C)C)C(O)C(C)(C)C1 (stereo unspecified),30.6
9,O=C(CC(c1ccccc1)N1CCCCC1)c1ccccc1 (stereo unspecified),35.4
10,O=C1/C(=C\c2ccc([N+](=O)[O-])o2)SC2N=C(COc3ccc(Cl)cc3)NN12 (stereo unspecified),37.2
11,Cc1cccc2c1[C@]13OC(C)[C@]4(C)CC5OC(=O)[C@@]1(C)[C@@H]5[C@]34C(=O)O2 (stereo partly specified),> 100

# System: SK-MEL-5 melanoma
# Assay: NCI anticancer screen, dose series, 48 h
row,Compound,TGI [µM]
1,Cc1cc(C)cc(C(=N)c2ccccc2Cc2cccc3ccccc23)c1,31.9
2,COn1cc(C=O)c2ccccc21,> 100
3,COC(CN(C(=O)c1ccccc1)C1CCC2(SCCS2)c2[nH]c3ccccc3c21)OC (stereo unspecified),> 100
4,C#CCn1ncc2c(SCc3ccccc3)ncnc21,> 100
5,CCC1OC2C(CC=C(C)C)=C3OC(C)(O)C(C)(CC)C(OC(=O)c4ccccc4)C3=C3OC(=O)C=C1C32 (stereo unspecified),43.7
6,CC1=C(C(N)=O)C(c2ccncc2)C(C#N)=C2SCC(=O)N12 (stereo unspecified),> 100
7,CCN(CC)c1ccc2cc(-c3nnc(-c4ccccc4)o3)c(=O)oc2c1,> 100
8,CC1=CC(C2/C(=N/O)C=C(C)CC2(C)C)C(O)C(C)(C)C1 (stereo unspecified),29.5
9,O=C(CC(c1ccccc1)N1CCCCC1)c1ccccc1 (stereo unspecified),29.6
10,O=C1/C(=C\c2ccc([N+](=O)[O-])o2)SC2N=C(COc3ccc(Cl)cc3)NN12 (stereo unspecified),27.1
11,Cc1cccc2c1[C@]13OC(C)[C@]4(C)CC5OC(=O)[C@@]1(C)[C@@H]5[C@]34C(=O)O2 (stereo partly specified),> 100
